Results as given in patent publication US4308273A, “1,6-Naphthyridine derivatives, and antidinic and cerebral circulation improver containing such derivatives” (Nippon Kayaku Kabushiki Kaisha, priority 1978, dated 1981).
Where two headings read alike, the source gives them in different places.

Experiments:
[1] = Inhibition of spontaneous nystagmus produced by unilateral destruction of the labyrinth (anti-vertigo action); type: in vivo; conditions: cats
Procedure: (1) It is well known that vertigo resulting from the disturbance of the peripheral labyrinth is accompanied by nystagmus. So, we acutely produced the spontaneous nystagmus by unilateral destruction of the labyrinth in cats and used it as an experimental model of vertigo. a pair of Ag--AgCl cup electrodes was placed laterally to both orbits and an indifferent electrode on the forehead. The nystagmus was recorded through an amplifier. The inhibitory effect of the compounds on the nystagmus was expressed by [formula] where A is the frequency of the nystagmus in ten seconds before administration of the compounds and B is the frequency of the nystagmus at the maximum inhibitory point after administration. The duration of the effect was also measured. Compounds dissolved in saline were injected into the femoral vein. Betahistine and diphenidol were used as standard drugs.
A: Doses of compounds injected intraveneously.
B: Effect of compounds on the nystagmus expressed as inhibitory
C: Duration of the effect of compounds

[2] = Effect on the hexobarbital-induced sleeping time; conditions: male mice, 50 mg/kg subcutaneously, 15 min prior to sodium hexobarbital i.p.
Procedure: (§1) Groups consisted of 10 male-mice were administered the compounds or saline subcutaneously 15 min. prior to an intraperitoneal injection of sodium hexobarbital. Sleeping time for each animal in a group was measured. The averaged value of sleeping time in each group was calculated. The action of the sleeping time was expressed by the percentage of the sleeping time in the compound-treated groups to that in the saline-treated group.
(§2) D: Sleeping time of the compound (50 mg/kg, subcutaneously)treated groups
(§3) expressd as percentage to that of the control group.

[3] = Acute toxicity (LD50) by intraperitoneal injection; conditions: mouse, in vivo, ip; male mice, intraperitoneal injection (Table 3)
Procedure: LD50 values of the compounds by intraperitoneal injection in mice were determined.

[4] = mouse, in vivo, 50 mg/kg
Procedure: as §1, §2, §3

[5] = Felis catus, iv, 6 mg/kg injected intravenously, read-out: Effect of compounds on the nystagmus expressed as inhibitory percentage

Q: With `c1cnc2c(c1)CN(CC1CC1)CC2` [Compound 22] as the compound, how does the inhibition at 6 mg/kg [1, 5] read?
A: 85%

Q: And the inhibition at 12 mg/kg ([1]; Felis catus, iv, 12 mg/kg injected intravenously, read-out: Effect of compounds on the nystagmus expressed as inhibitory percentage)?
A: 98%

Q: And the “Duration of the effect of compounds (nystagmus)” value ([1]; 6 mg/kg injected intravenously)?
A: 19 min

Q: What about the “Duration of the effect of compounds (nystagmus)” value ([1]; 12 mg/kg injected intravenously) of the same compound?
A: 35 min

Q: What about the “Sleeping time of the compound treated groups expressed as percentage to that of the control group” value [2] of the same compound?
A: 114.4%

Q: What about the LD50 [3] of the same compound?
A: 176 mg/kg

Q: What does the source list for `OC(CCCN1CCCCC1)(c1ccccc1)c1ccccc1` [diphenidol, reference compound]?
A: inhibition at 6 mg/kg [1, 5]: 70%; Duration of the effect of compounds (nystagmus) ([1]; 6 mg/kg injected intravenously): 45 min; LD50 [3]: 105 mg/kg; Sleeping time of the compound treated groups expressed as percentage to that of the control group [4]: 253.7%
